From patent US20030095958A1, “Inhibitors of bace” (priority 2001, published 2003) come the findings set out here.

Bounds are passed on as bounds.

The experiment addresses BACE (Homo sapiens, UniProt P56817). As to the kind of experiment: Ki Determination for the Inhibition of BACE (FS-1 peptide fluorescence cleavage assay). Type of experiment: biochemical. The following applies: apparent Ki; 50 nM BACE, 10 μM FS-1 substrate, 0.1M sodium acetate pH 4.5. A digest of the protocol: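 Human BACE (50 nM) was preincubated 15 min at room temperature with compound (2% DMSO) in 0.1 M sodium acetate pH 4.5, then 10 μM FS-1 peptide was added. Cleavage was followed by fluorescence (ex 355/em 495 nm), and apparent Ki came from fitting to the integrated competitive tight-binding inhibition equation.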

Chain of BACE (P56817 46-501): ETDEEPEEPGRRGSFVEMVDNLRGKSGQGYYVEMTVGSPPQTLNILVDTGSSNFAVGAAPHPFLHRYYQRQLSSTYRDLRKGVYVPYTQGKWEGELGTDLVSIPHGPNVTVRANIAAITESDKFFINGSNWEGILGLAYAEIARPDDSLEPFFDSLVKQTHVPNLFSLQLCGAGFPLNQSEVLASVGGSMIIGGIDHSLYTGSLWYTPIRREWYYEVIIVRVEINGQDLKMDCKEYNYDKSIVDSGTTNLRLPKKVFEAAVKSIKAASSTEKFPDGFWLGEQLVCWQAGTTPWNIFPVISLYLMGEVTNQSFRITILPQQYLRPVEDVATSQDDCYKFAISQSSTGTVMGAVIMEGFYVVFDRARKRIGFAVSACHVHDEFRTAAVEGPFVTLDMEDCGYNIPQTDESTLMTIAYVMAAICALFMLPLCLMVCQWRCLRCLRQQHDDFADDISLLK

As to `CCOC(=O)c1c(C)[nH]c2ccc(OCc3ccc(COc4ccccc4C(F)(F)F)cc3C3=CCNCC3)cc12` [Compound 332, 2-Methyl-5-[2-(1,2,3,6-tetrahydro-pyridin-4-yl)-4-(2-trifluoromethyl-phenoxymethyl)-benzyloxy]-1H-indole-3-carboxylic acid ethyl ester], the Ki was under 3 µM.

In the case of `FC(F)(F)c1ccccc1OCc1cc(C2=CCNCC2)c(COc2ccccc2C(F)(F)F)cc1Br` [Compound 333, 4-[4-Bromo-2,5-bis-(2-trifluoromethyl-phenoxymethyl)-phenyl]-1,2,3,6-tetrahydro-pyridine], the Ki is under 3 µM.

For `FC(F)(F)c1ccccc1OCc1cc(C2=CCNCC2)c(COc2ccccc2C(F)(F)F)cc1C1=CCNCC1` [Compound 334, 4-[4-(1,2,3,6-Tetrahydro-pyridin-4-yl)-2,5-bis-(2-trifluoromethyl-phenoxymethyl)-phenyl]-1,2,3,6-tetrahydro-pyridine], the Ki lay within 3 to 30 µM.

For `FC(F)(F)c1ccccc1OCc1cc(-c2ccc(Cl)c(Cl)c2)c(COc2ccccc2C(F)(F)F)cc1C1=CCNCC1` [Compound 335, 4-[3′,4′-Dichloro-2,5-bis-(2-trifluoromethyl-phenoxymethyl)-biphenyl-4-yl]-1,2,3,6-tetrahydro-pyridine], the Ki was in the range of 3 to 30 µM.

Regarding `FC(F)(F)c1ccccc1OCc1cc(-c2ccccc2C(F)(F)F)c(COc2ccccc2C(F)(F)F)cc1C1=CCNCC1` [Compound 336, 4-[2′-Trifluoromethyl-2,5-bis-(2-trifluoromethyl-phenoxymethyl)-biphenyl-4-yl]-1,2,3,6-tetrahydro-pyridine], the Ki was under 3 µM.

`FC(F)(F)c1cccc(-c2cc(COc3ccccc3C(F)(F)F)c(C3=CCNCC3)cc2COc2ccccc2C(F)(F)F)c1` [Compound 337, 4-[3′-Trifluoromethyl-2,5-bis-(2-trifluoromethyl-phenoxymethyl)-biphenyl-4-yl]-1,2,3,6-tetrahydro-pyridine]: the Ki was 3 to 30 µM.

Take `FC(F)(F)c1ccc(-c2cc(COc3ccccc3C(F)(F)F)c(C3=CCNCC3)cc2COc2ccccc2C(F)(F)F)cc1` [Compound 338, 4-[4′-Trifluoromethyl-2,5-bis-(2-trifluoromethyl-phenoxymethyl)-biphenyl-4-yl]-1,2,3,6-tetrahydro-pyridine]: the Ki was in the range of 3 to 30 µM.

As to `FC(F)(F)c1ccccc1OCc1cc(-c2ccc3ccccc3c2)c(COc2ccccc2C(F)(F)F)cc1C1=CCNCC1` [Compound 339, 4-[4-Naphthalen-2-yl-2,5-bis-(2-trifluoromethyl-phenoxymethyl)-phenyl]-1,2,3,6-tetrahydro-pyridine], the Ki lay in the range of 3 to 30 µM.

With `FC(F)(F)c1ccccc1OCc1cc(-c2cccnc2)c(COc2ccccc2C(F)(F)F)cc1C1=CCNCC1` [Compound 340, 3-[4-(1,2,3,6-Tetrahydro-pyridin-4-yl)-2,5-bis-(2-trifluoromethyl-phenoxymethyl)-phenyl]-pyridine], the Ki was under 3 µM.

As to `FC(F)(F)c1ccccc1OCc1cc(-c2ccncc2)c(COc2ccccc2C(F)(F)F)cc1C1=CCNCC1` [Compound 341, 4-[4-(1,2,3,6-Tetrahydro-pyridin-4-yl)-2,5-bis-(2-trifluoromethyl-phenoxymethyl)-phenyl]-pyridine], the Ki is under 3 µM.

For the compound `FC(F)(F)c1ccccc1OCc1cc(-c2ccsc2)c(COc2ccccc2C(F)(F)F)cc1C1=CCNCC1` [Compound 342, 4-[4-Thiophen-3-yl-2,5-bis-(2-trifluoromethyl-phenoxymethyl)-phenyl]-1,2,3,6-tetrahydro-pyridine], the Ki was under 3 µM.

`FC(F)(F)c1ccccc1OCc1cc(-c2ccoc2)c(COc2ccccc2C(F)(F)F)cc1C1=CCNCC1` [Compound 343, 4-[4-Furan-3-yl-2,5-bis-(2-trifluoromethyl-phenoxymethyl)-phenyl]-1,2,3,6-tetrahydro-pyridine]: the Ki was under 3 µM.
